Legend:
[1] = test system: rabbit aorta; experiment: Contraction of rabbit aorta induced by angiotensin II in a medium without calcium; parameters: species or system New Zealand rabbit; details: Oryctolagus cuniculus, 10^-5 M, medium lacking calcium
Method: (§1) Studies are carried out on rings, 3 mm in length, […] The vascular rings are immersed in a normal physiological solution or in a physiological solution lacking calcium (+0.2 mM of the chelating agent EGTA), which is thermostatically regulated at 37° C. and aerated with a 95% O2 +5% CO2 mixture. The rings are linked to a STATHAM tension sensor (UC2-GOULD). The optimal tension for each vessel is applied and a stabilization period of 90 min is observed for the preparations. b) Antivasoconstrictive activity of the compounds of the invention in a medium without calcium.

[2] = test system: guinea pig left auricle; experiment: Veratridine intoxication of guinea pig left auricle; details: compound 10^-5 M
Method: a) Effect of the compounds of the invention on the intoxication of guinea pig left auricle.
The left auricles are removed from guinea pigs (350-450 g) anesthetized with sodium pentobarbital (30 mg/kg). The auricles are attached to a STATHAM tension sensor (UC2-GOULD) and the initial tension applied is 0.5 grams.
The auricles are electrically stimulated at 1 Hz by means of platinum electrodes. The intoxications are produced either by the addition of ouabain (10^-6 M) or by the addition of veratridine (10^-5 M). The test compounds are added 15 minutes before adding the toxic agent.

[3] = test system: smooth muscle cells of the aorta; experiment: Proliferation rate after endothelial denudation of the aorta (3H-thymidine incorporation); assay type: in vivo, WISTAR rat; details: 10 mg/kg orally, daily
Method: D/ Effect of the compounds of the invention on the proliferation rate after endothelial denudation. […] After pretreatment for 6 days (J6), denudation of the aortic endothelium of the animals is performed according to the following method: After anesthetizing the animal with methohexital (Brietal, 60 mg/kg intraperitoneally), an embolectomy probe (Fogarty 2F) is introduced into the aorta through the left carotid. Aortic deendothelialization is achieved by three successive passages of the probe. Three days after the endothelial denudation (J9), the rats are sacrificed and the aorta is removed, incubated in a physiological solution for 1 hour at 37° C., and then transferred into a ^3 H-thymidine-enriched Krebs- Henseleit solution (specific activity: […]) for 1 hour at 37° C. This is followed by a one-hour post-incubation in a Krebs-Henseleit solution lacking ^3 H-thymidine. After washing in a Tris-EDTA buffer, the proliferation rate is calculated from the incorporation of 3H-thymidine. [drawing 17]

[4] = test system: guinea pig left auricle; experiment: Ouabain intoxication of guinea pig left auricle; details: compound 10^-5 M
[5] = test system: pig coronary artery; experiment: Vascular contraction of pig coronary artery induced by acetylcholine; details: Sus scrofa, 10^-5 M, preincubated 15 minutes
Method: Studies are carried out on rings, 3 mm in length, - or of coronary arteries from pigs anesthetized with nesdonal (8 mg/kg intravenously). The vascular rings are immersed in a normal physiological solution or in a physiological solution lacking calcium (+0.2 mM of the chelating agent EGTA), which is thermostatically regulated at 37° C. and aerated with a 95% O2 +5% CO2 mixture. The rings are linked to a STATHAM tension sensor (UC2-GOULD). The optimal tension for each vessel is applied and a stabilization period of 90 min is observed for the preparations. a) Antivasoconstrictive activity of the compounds of the invention in a physiological medium.

[6] = test system: reperfusion arrhythmias; experiment: Reperfusion arrhythmias after coronary ligature in rats; assay type: in vivo, WISTAR rat; details: 2 mg/kg intravenous
Method: C/ Action of the compounds of the invention on reperfusion arrhythmias.
A thoracotomy and a coronary ligature are carried out on WISTAR rats. After stabilization for 10 min, 2 mg/kg of the test compound are administered intravenously. The blood pressure, the heart rate and the electrocardiogram are recorded. Five minutes after injecting the product, the coronary ligature is tightened.
After 5 minutes of stenosis, the ligature is removed and the electrocardiogram as well as the blood pressure are recorded for 10 consecutive minutes. The delay in the appearance of the various rhythm disorders as well as the mortality are measured.

[7] = test system: vasopressor effect of phenylephrine; experiment: Cardiovascular reactivity to phenylephrine in wakeful rats, oral administration; assay type: in vivo, WISTAR rat
Method: After a 30 to 60 min period of stabilization of wakeful WISTAR rats, a range of concentrations of phenylephrine (between 0 and 16 μg/kg) is injected intravenously.
Reading of the mean blood pressure and heart rate is carried out at the point where the pressor effect reaches its maximum. After a washing time of at least 2 hours, the test compound is administered intravenously (10 mg/kg) followed 15 minutes later by a new range of phenylephrine.
b) Effects of the compounds of the invention, administered orally, on the cardiovascular reactivity of phenylephrine.
The procedure is carried out as above but the intravenous administration of the test compounds is replaced by oral administration (5, 10 and 20 mg/kg) of the test compound. The phenylephrine range is repeated 0.5, 1, 2, 3, 4, 5 and 6 hours after administration of the compound.

[8] = test system: rabbit aorta; experiment: Contraction of rabbit aorta induced by endothelin in a medium without calcium; parameters: species or system New Zealand rabbit; details: Oryctolagus cuniculus, 10^-5 M, medium lacking calcium
Method: as §1

[9] = test system: isolated heart; experiment: Isolated heart subjected to hypoxia-reoxygenation; parameters: species or system WISTAR rat; details: after 30 minutes of reoxygenation
Method: The heart is removed from WISTAR rats (325-375 g). The heart is rapidly perfused according to the technique of LANGENDORFF at a constant pressure of 101.310^2 Pa and electrically stimulated at 5 Hz. Isovolumetric contractions are recorded by means of a polyethylene ballonet linked to a pressure sensor (P23-GOULD) introduced into the left ventricle and inflated so as to obtain a diastolic pressure of between 6.710^2 and 13.310^2 Pa. c) Protective effect of the compounds of the invention on an isolated heart subjected to hypoxia-reoxygenation. An experimental procedure similar to that described in the preceding test is followed, the ischemia-reperfusion stage being replaced by a 60 min hypoxia produced by the administration of a 95% N2 +5% CO2 gaseous mixture during this period and followed by a 30 min reoxygenation. The test compounds are incubated for 15 min before and during the period of hypoxia.

[10] = test system: rabbit aortas; experiment: Contraction of rabbit aortas induced by noradrenaline in a medium without calcium; parameters: species or system New Zealand rabbit; details: Oryctolagus cuniculus, 0.5 h, rabbit aorta, incubated 30 minutes
Method: as §1

`CN(CC1CCN(CCCOc2ccc(F)cc2)CC1)S(=O)(=O)c1cccc2cnccc12.Cl.Cl` [Example 17, N-Methyl-N-{[1-[3-(p-fluorophenoxy)propyl]-4-piperidyl]methyl}-5-isoquinolinesulfonamide dihydrochloride] was tested. Which inhibition at 10 µM [1] did it give?
Its inhibition at 10 µM is 21%.

What about the “% contraction” value ([2]; 5 min) of the same compound?
Its value is 218.8 ± 50.8%.

What about the “% contraction” value ([2]; 15 min) of the same compound?
Its value is 181 ± 51%.

What about the “Contracture (%)” value ([2]; 15 min) of the same compound?
Its value is 0%.

What about the “Contracture (%)” value ([2]; 30 min) of the same compound?
The value was 0%.

And the “% contraction” value ([2]; 60 min)?
The value was 157.1 ± 42.6%.

And the “Contracture (%)” value ([2]; 60 min)?
Its value is 0%.

What about the “reduction of the proliferation of smooth muscle cells” value [3] of the same compound?
The value was 40%.

And the “% contraction” value ([4]; 10 min)?
The value was 201.5 ± 31.5%.

And the “Contracture (%)” value ([4]; 15 min)?
The value was 0%.

What about the “% contraction” value ([4]; 30 min) of the same compound?
Its value is 186.5 ± 46%.

And the “Contracture (%)” value ([4]; 30 min)?
The value was 2.5 ± 2.5%.

What about the “% contraction” value ([4]; 60 min) of the same compound?
Its value is 179 ± 44%.

What about the “Contracture (%)” value ([4]; 60 min) of the same compound?
The value was 5 ± 3.3%.

What about the inhibition at 10 µM [5] of the same compound?
Its inhibition at 10 µM is 64%.

And the “delay in the appearance of ventricular extrasystoles and tachycardias” value [6]?
The value was “very substantially delays the appearance of ventricular extrasystoles and tachycardias”.

What about the “prevention of the appearance of ventricular fibrillations” value [6] of the same compound?
Its value is 100%.

What about the mortality rate ([6]; control 4 deaths out of 9) of the same compound?
Its mortality rate is “zero”.

What about the “reduction of the vasopressor effect of phenylephrine” value ([7]; 20 mg/kg oral, maximum after 2 hours) of the same compound?
Its value is 60%.

And the “time of appearance of the inhibitory activity” value ([7]; after oral administration)?
Its value is 30 min.

What about the “time of maximum inhibitory activity” value ([7]; after oral administration, 20 mg/kg) of the same compound?
The value was 2 h.

And the “duration for which the inhibitory activity remains stable” value ([7]; oral)?
Its value is 6 h.

What about the inhibition at 10 µM [8] of the same compound?
The inhibition at 10 µM was 67%.

What about the “increase of the contraction relative to the control hearts” value [9] of the same compound?
Its value is “more than 100%”.

What about the inhibition at 1 µM ([10]; compound 10^-6 M) of the same compound?
Its inhibition at 1 µM is 90%.

And the inhibition at 0.1 µM ([10]; compound 10^-7 M)?
Its inhibition at 0.1 µM is 40%.

Reference: patent US5208243A, “5-isoquinolinesulfonamides” (Adir et Compagnie, priority 1991, dated 1993)
